According to patent US20230047313A1, “TREATING HEART DISEASE IN MUSCULAR DYSTROPHY PATIENTS” (Children`s Medical Center Corporation, priority 2019, published 2023):
Entries after “also recorded” stand apart in the source; their conditions may differ.

Tests used:
Type in all cases: in vivo, mouse
Utrn/mdx dko mice [1] = assay: Histology (Fast green/Sirius red staining) of heart sections of Utrn/mdx dko mice after Nox4 inhibitor treatment; details: 8 weeks after treatment, 60 mg/kg/day
From the text: (§1) Male mutation mice for both CIP and dystrophin genes (CIP-KO/mdx dko) were divided into four groups: • 1) group young control (3-month old mouse with corn oil); • 2) group young inhibitor (3-month old mouse with nox4 inhibitor); • 3) group old control (5-month old mouse with corn oil); • 4) group Old inhibitor (5-month old mouse with nox4 inhibitor) Male mutation mice for utrophin and dystrophin (c) were divided into two groups: • 1) group C: control (3-month old mouse with corn oil); • 2) group I: inhibitor (3-month old mouse with nox4 inhibitor); For all the animals in the inhibitor treatment group, the Nox4 Inhibitor (GKT137831 (SIGMA) diluted 1:100 in corn oil) was applied at the dosage of 60 mg/kg/day daily; control group was treated with corn oil only. Cardiac function was monitored using echocardiography before (pre-) and after Nox4 Inhibitor treatment at indicated times (weeks or months) and was presented as EF (ejection fraction) or FS % (fractional shortening), respectively. Utrn/mdx dko mice were sacrificed after final echocardiography measurement after 2 months. Histology was performed in the heart tissues and the expression of cardiac genes and fibronectin, a molecular marker for fibrosis, measured using real-time qPCR.

CIP-KO/mdx dko mice = assay: Oral gavage of Nox4 inhibitor in CIP-KO/mdx dko mice, cardiac function by echocardiography
From the text: Nox4 inhibitor GKT 137831 was purchased from MilliporeSigma and dissolved in corn oil. Male mutation mice for both CIP and dystrophin genes (CIP-KO/mdx dko) were divided into four groups: • 1) group young control (3-month old mouse with corn oil); • 2) group young inhibitor (3-month old mouse with nox4 inhibitor); • 3) group old control (5-month old mouse with corn oil); • 4) group Old inhibitor (5-month old mouse with nox4 inhibitor) Male mutation mice for utrophin and dystrophin (c) were divided into two groups: • 1) group C: control (3-month old mouse with corn oil); • 2) group I: inhibitor (3-month old mouse with nox4 inhibitor); For all the animals in the inhibitor treatment group, the Nox4 Inhibitor (GKT137831 (SIGMA) diluted 1:100 in corn oil) was applied at the dosage of 60 mg/kg/day daily; control group was treated with corn oil only. Cardiac function was monitored using echocardiography before (pre-) and after Nox4 Inhibitor treatment at indicated times (weeks or months) and was presented as EF (ejection fraction) or FS % (fractional shortening), respectively. Utrn/mdx dko mice were sacrificed after final echocardiography measurement after 2 months. Histology was performed in the heart tissues and the expression of cardiac genes and fibronectin, a molecular marker for fibrosis, measured using real-time qPCR.

Utrn/mdx dko mice [2] = assay: Quantitative real time PCR of fibronectin in hearts of Utrn/mdx dko mice after Nox4 inhibitor treatment; details: 8 weeks after treatment, 60 mg/kg/day
From the text: as §1

Utrn/mdx dko mice [3] = assay: Oral gavage of Nox4 inhibitor in Utrn/mdx dko mice, cardiac function by echocardiography; details: 60 mg/kg/day daily, 2, 4 and 8 weeks, both younger and older mice
Protocol: Nox4 inhibitor GKT 137831 was purchased from MilliporeSigma and dissolved in corn oil. […] Cardiac function was monitored using echocardiography before (pre-) and after Nox4 Inhibitor treatment at indicated times (weeks or months) and was presented as EF (ejection fraction) or FS % (fractional shortening), respectively. Utrn/mdx dko mice were sacrificed after final echocardiography measurement after 2 months. Histology was performed in the heart tissues and the expression of cardiac genes and fibronectin, a molecular marker for fibrosis, measured using real-time qPCR.

In the case of CN(C)c1cccc(-c2c3c(=O)n(-c4ccccc4Cl)[nH]c3cc(=O)n2C)c1 [GKT137831], the “formation of cardiac fibrosis and scars, Fast green/Sirius red staining” value (Utrn/mdx dko mice [1]) is reported as “decreased the formation of cardiac fibrosis and the formation of scars”, the “size of the left ventricle dimension, histological analysis” value (Utrn/mdx dko mice [1]) is reported as “reduced the size of the left ventricle dimension” and the “left ventricle dilation (LVID), echocardiography” value (CIP-KO/mdx dko mice; CIP-KO:mdx mice, 60 mg/kg/day daily, both younger (start 3 months old) and older (start 5 months old) mice) is reported as “reduced the left ventricle dilation (LVID)”. The “cardiac function (Ejection Fraction, EF), echocardiography” value (CIP-KO/mdx dko mice; CIP-KO:mdx mice, 60 mg/kg/day daily, both younger (start 3 months old) and older (start 5 months old) mice, 60 mg/kg/day) was “preserved cardiac function; also recorded: improves cardiac function”, the cardiac fibrosis (CIP-KO/mdx dko mice; mdx/CIP-KO mice as worded in the summary sentence, 60 mg/kg/day daily) was “reduces cardiac fibrosis” and the dystrophic cardiomyopathy (CIP-KO/mdx dko mice; mdx/CIP-KO mice, 60 mg/kg/day daily) was “potently ameliorated dystrophic cardiomyopathy”. The “development of heart failure” value (CIP-KO/mdx dko mice; mdx/CIP-KO mice, 60 mg/kg/day daily oral gavage, 60 mg/kg/day) was “preventing the development of heart failure; also recorded: potently prevents the development of heart failure”, the “fibronectin expression in the hearts, qPCR” value (Utrn/mdx dko mice [2]) was “reduced fibronectin expression” and the “cardiac function (Ejection Fraction, EF; Fractional Shortening, FS %), echocardiography” value (Utrn/mdx dko mice [3]) was “preserved cardiac function”. The “left ventricle dilation (LVID), echocardiography” value (Utrn/mdx dko mice [3]) was “reduced the left ventricle dilation (LVID)”.
